Experimental data: patent US20190352663A1 (priority 2018, published 2019)

Tests used:
[1] = tested on: CsPR1; type: in vivo, C. sinensis; conditions: 2 mM sprayed on leaves; 48 hours
[2] = tested on: CsSAG12-4; type: in vivo, C. sinensis; conditions: 2 mM sprayed on leaves; 48 hours
[3] = tested on: CsSAG12-1; type: in vivo, C. sinensis; conditions: 2 mM sprayed on leaves; 48 hours; not statistically significant
[4] = tested on: CsAALP; type: in vivo, C. sinensis; conditions: 2 mM sprayed on leaves; 48 hours; not statistically significant
[5] = molecular target: CsRD21a-Flag expressed in N. benthamiana and secreted into the apoplast (Citrus sinensis); assay: cell-based or functional assay
[6] = molecular target: papain (Sigma-Aldrich), a PLCP from papaya (papaya) (UniProt P00784); assay: cell-based or functional assay
UniProt P00784, sequence (P00784 134-345 limits assumed): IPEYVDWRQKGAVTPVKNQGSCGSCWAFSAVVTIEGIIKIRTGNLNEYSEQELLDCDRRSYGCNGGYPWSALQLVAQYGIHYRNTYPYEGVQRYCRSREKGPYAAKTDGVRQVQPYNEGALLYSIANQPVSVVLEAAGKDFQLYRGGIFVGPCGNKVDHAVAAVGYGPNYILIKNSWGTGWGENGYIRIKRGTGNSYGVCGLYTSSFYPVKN

[7] = tested on: PtoDC3000Δcip1; type: cell-based, Pseudomonas syringae pv. tomato; conditions: 100 μg/mL

O=C(O)c1ccccc1O [SA, salicylic acid]
expression of CsPR1 [1]: increase
expression of CsSAG12-4 [2]: significantly up-regulated
expression of CsSAG12-1 [3]: trend of increased expression
expression of CsAALP [4]: trend of increased expression

purified recombinant SDE1 protein (tag-free after removal of the His-SUMO tag)
CsRD21a activity (ABPP, ImageJ signal intensity) (% reduction at 0.8 µM SDE1) [5]: 9
CsRD21a activity (ABPP, ImageJ signal intensity) (% reduction at 1.6 µM SDE1) [5]: 62
CsRD21a activity (ABPP, ImageJ signal intensity) (% reduction at 3.2 µM SDE1) [5]: 96
DCG-04 labeling of papain (ABPP) (% reduction at 1.6 µM SDE1) [6]: 53

papain
inhibitory effect on bacterial growth in artificial media [7]: not observed
